From patent publication US20220315554A1, “COMPOUNDS COMPRISING A […] LIGAND AND USE THEREOF” (priority 2019, published 2022) come the findings set out here.

Numbered stars: 1 amine (or outer) side, 2 acyl side, 3 side chain; on linkers, the order of the positions; unused ones are H or OH. Bridge positions count the residues as written; N and C are the ends. Square brackets hold non-standard residues; d marks the D form. Peptide text beside a SMILES is read from it. * marks the point of attachment. ξ: configuration not given here. TBMB(SCH2CH2NH-DOTA) = O=C(O)CN1CCN(CC(=O)O)CCN(CC(=O)NCCSCc2cc(C[*:1])cc(C[*:2])c2)CCN(CC(=O)O)CC1; mXylylene = c1cc(C[*:1])cc(C[*:2])c1; 4Pal = N[C@@H](Cc1ccncc1)C(=O)O; Aic = NC1(C(=O)O)Cc2ccccc2C1; Hexanoyl = CCCCCC(=O)*; ξM = CSCCC(N)C(=O)O

A short description of series [1]: Plasma stability assay, mouse plasma. To be noted: 4 h incubation, 37° C., read-out: % intact compound remaining after incubation, Mouse plasma. The class given is in vitro ADME.
The target of series [2] is T1, Human recombinant FAP (Homo sapiens, UniProt Q12884).
T1 sequence (Q12884 1-760): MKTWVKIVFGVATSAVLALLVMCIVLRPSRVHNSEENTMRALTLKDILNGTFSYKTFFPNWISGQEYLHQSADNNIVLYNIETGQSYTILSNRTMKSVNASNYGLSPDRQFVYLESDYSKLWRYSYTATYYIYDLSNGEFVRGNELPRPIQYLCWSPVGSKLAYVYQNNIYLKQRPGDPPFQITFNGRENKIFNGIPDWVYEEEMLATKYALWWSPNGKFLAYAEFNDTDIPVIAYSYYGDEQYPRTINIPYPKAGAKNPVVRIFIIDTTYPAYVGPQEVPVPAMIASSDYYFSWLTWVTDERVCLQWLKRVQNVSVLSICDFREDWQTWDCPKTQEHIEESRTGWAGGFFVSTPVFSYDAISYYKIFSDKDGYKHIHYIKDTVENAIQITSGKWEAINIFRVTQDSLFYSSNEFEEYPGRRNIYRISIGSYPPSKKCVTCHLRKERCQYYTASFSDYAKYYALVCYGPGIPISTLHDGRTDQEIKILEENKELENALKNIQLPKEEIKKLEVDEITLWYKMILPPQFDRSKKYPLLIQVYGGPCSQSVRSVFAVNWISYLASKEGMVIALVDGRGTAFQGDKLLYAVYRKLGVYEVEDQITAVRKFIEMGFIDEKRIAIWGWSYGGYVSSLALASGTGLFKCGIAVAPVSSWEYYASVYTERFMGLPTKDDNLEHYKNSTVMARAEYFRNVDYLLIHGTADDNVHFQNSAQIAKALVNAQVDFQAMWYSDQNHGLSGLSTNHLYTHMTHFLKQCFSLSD
Description: FRET-based FAP protease activity assay. More on the design: purchased R&D systems 3715-SE. Particulars: pIC50 Category (Activity), FRET substrate, 37° C. The class given is biochemical.

Series [3] addresses T2, FAP-expressing human WI-38 fibroblasts (Homo sapiens, UniProt Q12884).
T2 construct: FAP-expressing human WI-38 fibroblasts (ECACC) were cultured in EMEM; host or cells: WI-38 human fibroblasts
T2 sequence (Q12884 1-760): T1 sequence (Q12884 1-760)
Description: Competitive FACS binding assay. To be noted: pIC50 Category (FACS), competition with 3 nM Cy5-labeled compound, 4° C., 1 hour. The protocol:
Cells were analyzed in an Attune NxT flow cytometer. […]
A general note: Flow cytometry measures light scatter and fluorescence of single cells or particles in a stream.

For series [4], the target named is T1, Human recombinant FAP. Put plainly: Surface plasmon resonance (Biacore) assay. The class given is binding. For orientation: In SPR one partner is held on a chip, and binding of the other changes the refractive index at the surface.

By share remaining is commonly meant the share of the starting amount still present when the sample was taken. As usually defined, the IC50 is the point on the concentration scale where inhibition reaches its midpoint. Consider `CSCCC(N)C(=O)N[C@H]1CSCc2cccc(c2)CSC[C@@H](C(=O)N[C@@H](CC(=O)O)C(=O)N[C@@H](Cc2c[nH]cn2)C(=O)N[C@@H](Cc2ccccc2)C(=O)N[C@@H](CCCNC(=N)N)C(=O)N[C@@H](CC(=O)O)C(N)=O)NC(=O)[C@H](Cc2ccccc2)NC(=O)[C@H](CCC(=O)O)NC(=O)[C@H]([C@@H](C)O)NC(=O)[C@@H]2CCCN2C(=O)[C@@H]2CCCN2C1=O` (stereo partly drawn) [3BP-2976, H-met-[Cys(3MeBn)-Pro-Pro-Thr-Glu-Phe-Cys]-Asp-His-Phe-Arg-Asp-NH2] (H-[ξM]CPPTEFCDHFRD-NH2; linker 2-8 via mXylylene), for which the amount remaining at 4 h, 9.8 µM in series [1] was 93%. Further, the half-inhibitory concentration (IC50) (on Human recombinant FAP [2] (recombinant human FAP); in series [3] (WI-38 fibroblasts)) was less than 10 nM in each case.

As for `CSCC[C@H](NC(C)=O)C(=O)N[C@H]1CSCc2cccc(c2)CSC[C@@H](C(=O)N[C@@H](CC(=O)O)C(=O)N[C@@H](Cc2c[nH]cn2)C(=O)N[C@@H](Cc2ccccc2)C(=O)N[C@@H](CCCNC(=N)N)C(=O)N[C@@H](CC(=O)O)C(N)=O)NC(=O)[C@H](Cc2ccccc2)NC(=O)[C@H](CCC(=O)O)NC(=O)[C@H]([C@@H](C)O)NC(=O)[C@H]2CCCN2C(=O)[C@@H]2CCCN2C1=O` [3BP-3177, Ac-Met-[Cys(3MeBn)-Pro-pro-Thr-Glu-Phe-Cys]-Asp-His-Phe-Arg-Asp-NH2] (Ac-MCP[dP]TEFCDHFRD-NH2; linker 2-8 via mXylylene), the share remaining at 4 h, 9.8 µM in series [1] is 79%. Also, the IC50 (at Human recombinant FAP [2] (recombinant human FAP); in series [3] (WI-38 fibroblasts)) was 10 to 79.4 nM in each case.

Consider `CSCC[C@H](NC(C)=O)C(=O)N[C@@H]1CSCc2cccc(c2)CSC[C@H](C(=O)N[C@@H](CC(=O)O)C(=O)N[C@@H](Cc2c[nH]cn2)C(=O)N[C@@H](Cc2ccccc2)C(=O)N[C@@H](CCCNC(=N)N)C(=O)N[C@@H](CC(=O)O)C(N)=O)NC(=O)[C@H](Cc2ccccc2)NC(=O)[C@H](CCC(=O)O)NC(=O)[C@H]([C@@H](C)O)NC(=O)[C@@H]2CCCN2C(=O)[C@@H]2CCCN2C1=O` [3BP-3181, Ac-Metqcys(3MeBn)-Pro-Pro-Thr-Glu-Phe-cys]-Asp-His-Phe-Arg-Asp-NH2] (Ac-M[dC]PPTEF[dC]DHFRD-NH2; linker 2-8 via mXylylene), for which the fraction remaining at 4 h, 9.8 µM in series [1] stood at 100%.

`CSCC[C@H](NC(C)=O)C(=O)N[C@H]1CSCc2cccc(c2)CSC[C@@H](C(=O)N[C@H](CC(=O)O)C(=O)N[C@@H](Cc2c[nH]cn2)C(=O)N[C@@H](Cc2ccccc2)C(=O)N[C@@H](CCCNC(=N)N)C(=O)N[C@@H](CC(=O)O)C(N)=O)NC(=O)[C@H](Cc2ccccc2)NC(=O)[C@H](CCC(=O)O)NC(=O)[C@H]([C@@H](C)O)NC(=O)[C@@H]2CCCN2C(=O)[C@@H]2CCCN2C1=O` [3BP-3183, Ac-Met-[Cys(3MeBn)-Pro-Pro-Thr-Glu-Phe-Cys]-asp-His-Phe-Arg-Asp-NH2] (Ac-MCPPTEFC[dD]HFRD-NH2; linker 2-8 via mXylylene): the fraction remaining at 4 h, 9.8 µM in series [1] is 98%. Besides, the 50% inhibitory concentration (IC50) (on Human recombinant FAP [2] (recombinant human FAP); in series [3] (WI-38 fibroblasts)) was 10 to 79.4 nM in each case.

With `CSCC[C@H](NC(C)=O)C(=O)N[C@H]1CSCc2cccc(c2)CSC[C@@H](C(=O)N[C@@H](CC(=O)O)C(=O)N[C@@H](Cc2c[nH]cn2)C(=O)N(C)[C@@H](Cc2ccccc2)C(=O)N[C@@H](CCCNC(=N)N)C(=O)N[C@@H](CC(=O)O)C(N)=O)NC(=O)[C@H](Cc2ccccc2)NC(=O)[C@H](CCC(=O)O)NC(=O)[C@H]2NC(=O)[C@@H]3C(CCN3C(=O)[C@@H]3CCCN3C1=O)[C@H]2O` [3BP-3188, Ac-Met-[Cys(3MeBn)-Pro-Pro-Thr-Glu-Phe-Cys]-Asp-His-Nmf-Arg-Asp-NH2], the amount remaining at 4 h, 9.8 µM in series [1] is 97%. For the same compound, the IC50 (on Human recombinant FAP [2] (recombinant human FAP); in series [3] (WI-38 fibroblasts)) was less than 10 nM each time.

As to `CSCC[C@H](NC(C)=O)C(=O)N[C@H]1CSCc2cccc(c2)CSC[C@@H](C(=O)N[C@@H](CC(=O)O)C(=O)N[C@@H](Cc2c[nH]cn2)C(=O)N2Cc3ccccc3C[C@H]2C(=O)N[C@@H](CCCNC(=N)N)C(=O)N[C@@H](CC(=O)O)C(N)=O)NC(=O)[C@H](Cc2ccccc2)NC(=O)[C@H](CCC(=O)O)NC(=O)[C@H]2NC(=O)[C@@H]3C(CCN3C(=O)[C@@H]3CCCN3C1=O)[C@H]2O` [3BP-3189, Ac-Met-[Cys(3MeBn)-Pro-Pro-Thr-Glu-Phe-Cys]-Asp-His-Tic-Arg-Asp-NH2], the share remaining at 4 h, 9.8 µM in series [1] was 100%. Besides, the concentration for half-maximal inhibition (IC50) (on Human recombinant FAP [2] (recombinant human FAP); in series [3] (WI-38 fibroblasts)) was less than 10 nM throughout.

Consider `CSCC[C@H](NC(C)=O)C(=O)N[C@H]1CSCc2cccc(c2)CSC[C@@H](C(=O)N[C@@H](CC(=O)O)C(=O)N[C@@H](Cc2c[nH]cn2)C(=O)NC2(C(=O)N[C@@H](CCCNC(=N)N)C(=O)N[C@@H](CC(=O)O)C(N)=O)Cc3ccccc3C2)NC(=O)[C@H](Cc2ccccc2)NC(=O)[C@H](CCC(=O)O)NC(=O)[C@H]([C@@H](C)O)NC(=O)[C@@H]2CCCN2C(=O)[C@@H]2CCCN2C1=O` [3BP-3190, Ac-Met-[Cys(3MeBn)-Pro-Pro-Thr-Glu-Phe-Cys]-Asp-His-Aic-Arg-Asp-NH2] (Ac-MCPPTEFCDH[Aic]RD-NH2; linker 2-8 via mXylylene), for which, in series [1], the share remaining at 4 h, 9.8 µM turned out to be 88%. Further, the IC50 (at Human recombinant FAP [2] (recombinant human FAP); in series [3] (WI-38 fibroblasts)) was less than 10 nM each time.

As for `CSCC[C@H](NC(C)=O)C(=O)N[C@H]1CSCc2cccc(c2)CSC[C@@H](C(=O)N[C@@H](CC(=O)O)C(=O)N[C@@H](Cc2c[nH]cn2)C(=O)N[C@@H](Cc2ccncc2)C(=O)N[C@@H](CCCNC(=N)N)C(=O)N[C@@H](CC(=O)O)C(N)=O)NC(=O)[C@H](Cc2ccccc2)NC(=O)[C@H](CCC(=O)O)NC(=O)[C@H]([C@@H](C)O)NC(=O)[C@@H]2CCCN2C(=O)[C@@H]2CCCN2C1=O` [3BP-3191, Ac-Met-[Cys(3MeBn)-Pro-Pro-Thr-Glu-Phe-Cys]-Asp-His-Ppa-Arg-Asp-NH2] (Ac-MCPPTEFCDH[4Pal]RD-NH2; linker 2-8 via mXylylene), the amount remaining at 4 h, 9.8 µM in series [1] was determined as 100%. The IC50 (on Human recombinant FAP [2] (recombinant human FAP); in series [3] (WI-38 fibroblasts)) was less than 10 nM throughout.

The term Kd denotes a measure of binding affinity in units of concentration. `CCCCCC(=O)N[C@H]1CSCc2cc(CSCCNC(=O)CN3CCN(CC(=O)O)CCN(CC(=O)O)CCN(CC(=O)O)CC3)cc(c2)CSC[C@@H](C(=O)O)NC(=O)[C@H](Cc2ccccc2)NC(=O)[C@H](CCC(=O)O)NC(=O)[C@H]([C@@H](C)O)NC(=O)[C@@H]2CCCN2C(=O)[C@@H]2CCCN2C1=O` [3BP-4250, Hex-[Cys-(tMeBn(DOTA-AET))-Pro-Pro-Thr-Glu-Phe-Cys]-OH] (Hexanoyl-CPPTEFC-OH; linker 1-7 via TBMB(SCH2CH2NH-DOTA)): the Kd at Human recombinant FAP [4] was less than 10 nM. The IC50 on Human recombinant FAP [2] was 10 to 79.4 nM; in series [3], less than 10 nM.

As for `CCCCCC(=O)N[C@H]1CSCc2cc(CSCCNC(=O)COCCOCCNC(=O)CC[C@H](C(=O)O)N3CCN(CC(=O)O)CCN(CC(=O)O)CC3)cc(c2)CSC[C@@H](C(=O)O)NC(=O)[C@H](Cc2ccccc2)NC(=O)[C@H](CCC(N)=O)NC(=O)[C@H]([C@@H](C)O)NC(=O)[C@@H]2CCCN2C(=O)[C@@H]2CCCN2C1=O` [3BP-4251, Hex-[Cys-(tMeBn(NODAGA-O2Oc-AET))-Pro-Pro-Thr-Gln-Phe-Cys]-OH], the Kd on Human recombinant FAP [4] is less than 10 nM. In addition, the IC50 (at Human recombinant FAP [2]; in series [3]) was less than 10 nM throughout.
